Test results from the kinase profiling compilation of Christmann-Franck et al. (2016).

How the values were obtained:
Assay in all cases: KINOMEscan competition binding
CDK16 (human) = CDK16 (human) (UniProt Q00536)
CSNK1G1 (human) = CSNK1G1 (human) (UniProt Q9HCP0)
PRKAA1 (human) = PRKAA1 (human) (UniProt Q13131)
[1] = biological target: PIK3CA (human), P42336 [E542K]
MAP3K2 (human) = MAP3K2 (human) (UniProt Q9Y2U5)
PIM3 (human) = PIM3 (human) (UniProt Q86V86)
EPHA8 (human) = EPHA8 (human) (UniProt P29322)
EPHA8 (human), sequence (P29322 whole entry, looked up): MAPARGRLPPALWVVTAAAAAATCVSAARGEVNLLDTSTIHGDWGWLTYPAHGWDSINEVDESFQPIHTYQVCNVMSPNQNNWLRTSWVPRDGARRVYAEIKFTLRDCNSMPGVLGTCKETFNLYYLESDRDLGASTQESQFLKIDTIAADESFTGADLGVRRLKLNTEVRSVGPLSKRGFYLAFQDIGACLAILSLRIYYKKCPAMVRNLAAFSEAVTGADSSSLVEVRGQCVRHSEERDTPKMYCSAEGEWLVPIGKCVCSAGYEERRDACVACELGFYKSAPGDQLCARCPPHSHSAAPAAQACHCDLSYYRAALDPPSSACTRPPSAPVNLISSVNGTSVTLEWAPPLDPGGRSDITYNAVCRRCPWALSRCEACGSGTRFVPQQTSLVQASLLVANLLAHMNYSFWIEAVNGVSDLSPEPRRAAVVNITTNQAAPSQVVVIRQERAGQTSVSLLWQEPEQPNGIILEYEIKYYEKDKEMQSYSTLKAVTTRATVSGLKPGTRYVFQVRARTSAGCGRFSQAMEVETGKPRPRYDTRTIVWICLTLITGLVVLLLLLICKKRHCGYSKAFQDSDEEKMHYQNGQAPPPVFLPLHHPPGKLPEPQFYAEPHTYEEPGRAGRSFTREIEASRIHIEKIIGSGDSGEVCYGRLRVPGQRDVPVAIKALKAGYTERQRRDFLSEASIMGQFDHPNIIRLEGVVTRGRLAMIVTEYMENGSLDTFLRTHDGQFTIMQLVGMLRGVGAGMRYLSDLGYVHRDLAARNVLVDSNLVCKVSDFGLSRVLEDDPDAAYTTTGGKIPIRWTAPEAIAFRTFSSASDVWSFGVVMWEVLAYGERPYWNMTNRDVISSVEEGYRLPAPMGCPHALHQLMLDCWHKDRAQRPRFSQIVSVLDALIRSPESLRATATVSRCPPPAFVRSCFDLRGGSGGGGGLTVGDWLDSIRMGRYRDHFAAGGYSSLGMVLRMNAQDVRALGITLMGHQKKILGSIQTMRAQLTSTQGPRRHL

CLK4 (human) = CLK4 (human) (UniProt Q9HAZ1)
TNIK (human) = TNIK (human) (UniProt Q9UKE5)
PRKCD (human) = PRKCD (human) (UniProt Q05655)
[2] = biological target: BRAF (human), P15056 [V600E]
BRAF (human), P15056 [V600E], sequence (P15056 whole entry V600E, looked up): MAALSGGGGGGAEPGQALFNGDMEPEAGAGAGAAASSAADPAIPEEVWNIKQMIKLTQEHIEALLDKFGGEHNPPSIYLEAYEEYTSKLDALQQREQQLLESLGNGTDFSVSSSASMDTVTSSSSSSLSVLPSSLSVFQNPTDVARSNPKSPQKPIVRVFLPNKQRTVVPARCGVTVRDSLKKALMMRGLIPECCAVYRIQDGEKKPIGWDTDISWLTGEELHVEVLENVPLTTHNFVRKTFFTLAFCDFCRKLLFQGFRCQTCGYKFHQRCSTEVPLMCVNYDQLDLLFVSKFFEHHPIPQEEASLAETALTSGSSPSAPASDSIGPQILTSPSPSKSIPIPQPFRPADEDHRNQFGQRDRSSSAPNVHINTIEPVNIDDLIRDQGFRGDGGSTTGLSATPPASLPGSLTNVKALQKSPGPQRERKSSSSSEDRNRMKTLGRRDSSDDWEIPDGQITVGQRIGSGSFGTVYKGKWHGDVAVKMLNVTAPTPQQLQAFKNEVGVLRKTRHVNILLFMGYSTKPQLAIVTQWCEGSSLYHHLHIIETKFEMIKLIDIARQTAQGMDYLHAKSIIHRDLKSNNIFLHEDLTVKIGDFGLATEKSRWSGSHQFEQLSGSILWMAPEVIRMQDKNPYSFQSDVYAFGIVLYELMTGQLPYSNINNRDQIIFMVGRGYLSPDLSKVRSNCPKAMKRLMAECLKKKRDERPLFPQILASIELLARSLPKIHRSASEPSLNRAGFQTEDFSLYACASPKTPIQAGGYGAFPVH

STK33 (human) = STK33 (human) (UniProt Q9BYT3)
PIM2 (human) = PIM2 (human) (UniProt Q9P1W9)
BMX (human) = BMX (human) (UniProt P51813)
PRKCQ (human) = PRKCQ (human) (UniProt Q04759)
PTK6 (human) = PTK6 (human) (UniProt Q13882)
[3] = biological target: ABL1 (human), P00519 [E255K]
CHUK (human) = CHUK (human) (UniProt O15111)
CHUK (human), sequence (O15111 whole entry, looked up): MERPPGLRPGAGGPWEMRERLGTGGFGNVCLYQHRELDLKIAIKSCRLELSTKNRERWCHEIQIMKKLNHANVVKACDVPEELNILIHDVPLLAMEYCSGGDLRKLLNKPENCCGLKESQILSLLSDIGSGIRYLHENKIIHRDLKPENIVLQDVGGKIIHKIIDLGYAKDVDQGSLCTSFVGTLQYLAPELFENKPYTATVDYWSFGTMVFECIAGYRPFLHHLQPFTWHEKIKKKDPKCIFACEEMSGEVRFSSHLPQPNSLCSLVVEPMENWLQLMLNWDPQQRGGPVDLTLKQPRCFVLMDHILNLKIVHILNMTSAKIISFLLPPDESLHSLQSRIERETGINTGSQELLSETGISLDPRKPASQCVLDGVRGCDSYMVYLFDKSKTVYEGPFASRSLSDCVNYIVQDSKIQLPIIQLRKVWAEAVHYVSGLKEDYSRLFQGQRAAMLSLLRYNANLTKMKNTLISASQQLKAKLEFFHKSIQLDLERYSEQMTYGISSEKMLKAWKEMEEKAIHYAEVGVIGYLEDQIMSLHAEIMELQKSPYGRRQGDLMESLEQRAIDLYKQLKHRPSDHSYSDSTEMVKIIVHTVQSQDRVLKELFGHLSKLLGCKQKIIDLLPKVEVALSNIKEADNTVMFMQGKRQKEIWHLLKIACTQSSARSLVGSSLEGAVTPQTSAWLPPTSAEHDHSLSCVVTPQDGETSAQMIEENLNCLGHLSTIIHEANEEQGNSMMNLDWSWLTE

EPHA5 (human) = EPHA5 (human) (UniProt P54756)
CDC42BPA (human) = CDC42BPA (human) (UniProt Q5VT25)
MAPK13 (human) = MAPK13 (human) (UniProt O15264)
MAPK13 (human), sequence (O15264 whole entry, looked up): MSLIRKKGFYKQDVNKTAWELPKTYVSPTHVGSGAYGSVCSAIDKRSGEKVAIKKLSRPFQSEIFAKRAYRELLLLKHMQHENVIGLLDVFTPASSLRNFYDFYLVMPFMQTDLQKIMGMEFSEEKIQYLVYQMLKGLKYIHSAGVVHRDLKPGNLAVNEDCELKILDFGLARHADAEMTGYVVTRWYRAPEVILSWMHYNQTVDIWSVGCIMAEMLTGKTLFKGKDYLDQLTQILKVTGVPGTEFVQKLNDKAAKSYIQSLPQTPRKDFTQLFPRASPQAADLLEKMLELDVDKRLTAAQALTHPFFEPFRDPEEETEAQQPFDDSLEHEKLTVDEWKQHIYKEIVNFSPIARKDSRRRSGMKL

MAP4K1 (human) = MAP4K1 (human) (UniProt Q92918)
CAMK1D (human) = CAMK1D (human) (UniProt Q8IU85)
DYRK2 (human) = DYRK2 (human) (UniProt Q92630)
PRKD1 (human) = PRKD1 (human) (UniProt Q15139)
STK4 (human) = STK4 (human) (UniProt Q13043)
IRAK3 (human) = IRAK3 (human) (UniProt Q9Y616)
IRAK3 (human), sequence (Q9Y616 whole entry, looked up): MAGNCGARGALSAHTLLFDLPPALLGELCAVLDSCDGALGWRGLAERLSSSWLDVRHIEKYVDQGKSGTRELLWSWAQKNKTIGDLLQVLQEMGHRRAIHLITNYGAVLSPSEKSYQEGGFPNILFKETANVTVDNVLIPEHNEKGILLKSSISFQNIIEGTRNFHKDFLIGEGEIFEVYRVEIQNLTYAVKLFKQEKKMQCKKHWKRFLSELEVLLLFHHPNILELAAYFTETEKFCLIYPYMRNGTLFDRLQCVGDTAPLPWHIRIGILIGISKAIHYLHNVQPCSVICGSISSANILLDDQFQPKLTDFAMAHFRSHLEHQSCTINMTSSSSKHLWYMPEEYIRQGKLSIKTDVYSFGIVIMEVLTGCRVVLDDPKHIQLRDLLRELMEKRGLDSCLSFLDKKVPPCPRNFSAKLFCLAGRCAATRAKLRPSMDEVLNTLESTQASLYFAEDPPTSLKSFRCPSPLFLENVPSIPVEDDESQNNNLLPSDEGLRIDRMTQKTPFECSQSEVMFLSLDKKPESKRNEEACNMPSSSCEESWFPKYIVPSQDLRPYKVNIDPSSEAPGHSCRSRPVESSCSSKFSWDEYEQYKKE

MAP3K9 (human) = MAP3K9 (human) (UniProt P80192)
[4] = biological target: ABL1 (human), P00519 [Y253F]
HUNK (human) = HUNK (human) (UniProt P57058)
HUNK (human), sequence (P57058 whole entry, looked up): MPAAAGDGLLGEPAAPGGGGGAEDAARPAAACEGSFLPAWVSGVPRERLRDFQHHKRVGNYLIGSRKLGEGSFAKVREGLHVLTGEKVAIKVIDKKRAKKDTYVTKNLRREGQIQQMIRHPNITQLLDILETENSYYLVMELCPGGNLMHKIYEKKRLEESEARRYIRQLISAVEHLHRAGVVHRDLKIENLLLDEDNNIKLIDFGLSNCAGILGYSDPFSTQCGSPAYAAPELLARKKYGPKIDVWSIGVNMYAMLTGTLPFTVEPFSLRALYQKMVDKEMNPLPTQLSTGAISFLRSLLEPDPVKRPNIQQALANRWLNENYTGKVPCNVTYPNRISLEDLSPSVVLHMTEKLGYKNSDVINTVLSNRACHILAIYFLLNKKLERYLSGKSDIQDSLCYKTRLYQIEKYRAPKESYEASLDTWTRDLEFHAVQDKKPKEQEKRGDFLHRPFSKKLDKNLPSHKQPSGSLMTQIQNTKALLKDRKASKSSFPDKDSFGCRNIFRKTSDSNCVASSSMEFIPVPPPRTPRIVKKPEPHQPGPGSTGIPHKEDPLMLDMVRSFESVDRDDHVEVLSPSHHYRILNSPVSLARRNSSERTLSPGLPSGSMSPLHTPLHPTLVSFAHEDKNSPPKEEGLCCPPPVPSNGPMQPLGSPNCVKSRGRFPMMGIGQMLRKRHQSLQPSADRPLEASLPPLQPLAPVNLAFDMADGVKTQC

CAMK1G (human) = CAMK1G (human) (UniProt Q96NX5)
CAMK1G (human), sequence (Q96NX5 whole entry, looked up): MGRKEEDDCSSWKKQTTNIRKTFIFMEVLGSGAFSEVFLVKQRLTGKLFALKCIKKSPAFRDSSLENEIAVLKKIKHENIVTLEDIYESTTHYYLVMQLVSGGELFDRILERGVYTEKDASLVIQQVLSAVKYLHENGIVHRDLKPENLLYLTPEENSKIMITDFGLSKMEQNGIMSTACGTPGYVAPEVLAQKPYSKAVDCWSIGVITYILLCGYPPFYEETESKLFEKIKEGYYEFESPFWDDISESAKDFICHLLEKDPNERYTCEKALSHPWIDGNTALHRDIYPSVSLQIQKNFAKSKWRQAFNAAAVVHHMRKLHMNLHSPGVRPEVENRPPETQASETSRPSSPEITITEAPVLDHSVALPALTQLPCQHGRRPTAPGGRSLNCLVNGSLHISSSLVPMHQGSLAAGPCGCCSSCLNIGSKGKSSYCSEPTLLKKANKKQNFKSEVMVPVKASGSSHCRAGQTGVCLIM

PTK2 (human) = PTK2 (human) (UniProt Q05397)
CDK14 (human) = CDK14 (human) (UniProt O94921)
[5] = biological target: MET (human), P08581 [M1250T]
MET (human) = MET (human) (UniProt P08581)
CDK8 (human) = CDK8 (human) (UniProt P49336)
RPS6KA2 KD2 (human) = RPS6KA2 KD2 (human) (UniProt Q15349)
[6] = biological target: FLT3 (human), P36888 [D835H]
TSSK1B (human) = TSSK1B (human) (UniProt Q9BXA7)
PRKACA (human) = PRKACA (human) (UniProt P17612)

A Kd (CDK16 (human)) of 1600 nM, a Kd (CSNK1G1 (human)) of 36000 nM and a Kd (PRKAA1 (human)) of 8700 nM were found for COc1cc2ncnc(Oc3cccc(NC(=O)Nc4cc(C(C)(C)C(F)(F)F)on4)c3)c2cc1OC in this work. For the same compound, the Kd [1] was 27000 nM, the Kd (MAP3K2 (human)) was 13000 nM and the Kd (PIM3 (human)) was 13000 nM. For the same compound, the Kd (EPHA8 (human)) was 14 nM, the Kd (CLK4 (human)) was 16000 nM and the Kd (TNIK (human)) was 66 nM. The Kd (PRKCD (human)) was 1200 nM, the Kd [2] was 14 nM and the Kd (STK33 (human)) was 18000 nM. For the same compound, the Kd (PIM2 (human)) was 26000 nM, the Kd (BMX (human)) was 820 nM and the Kd (PRKCQ (human)) was 13000 nM. For the same compound, the Kd (PTK6 (human)) was 200 nM, the Kd [3] was 6.5 nM and the Kd (CHUK (human)) was 170 nM. It also gave a Kd (EPHA5 (human)) of 56 nM, a Kd (CDC42BPA (human)) of 30000 nM and a Kd (MAPK13 (human)) of 390 nM. For the same compound, the Kd (MAP4K1 (human)) was 220 nM, the Kd (CAMK1D (human)) was 3800 nM and the Kd (DYRK2 (human)) was 27000 nM. It also gave a Kd (PRKD1 (human)) of 7300 nM, a Kd (STK4 (human)) of 30000 nM and a Kd (IRAK3 (human)) of 1400 nM. For the same compound, the Kd (MAP3K9 (human)) was 1500 nM, the Kd [4] was 3 nM and the Kd (HUNK (human)) was 12000 nM. It also gave a Kd (CAMK1G (human)) of 30000 nM, a Kd (PTK2 (human)) of 7500 nM and a Kd (CDK14 (human)) of 110 nM. It also gave a Kd [5] of 2100 nM, a Kd (MET (human)) of 510 nM and a Kd (CDK8 (human)) of 1100 nM. For the same compound, the Kd (RPS6KA2 KD2 (human)) was 33000 nM, the Kd [6] was 67 nM and the Kd (TSSK1B (human)) was 26000 nM. The Kd (PRKACA (human)) was 13000 nM.
